The subject of the test is Gli-responsive luciferase reporter cells, SUFU pathway antagonism. The test can be described thus: blockers of Gli reporter signaling – cell-based, luciferase luminescence, uHTS hits, dose response (AID 602464).

This note sets out measurements from PubChem BioAssay AID602464 (Sanford-Burnham Center for Chemical Genomics, 2012).

As usually defined, the IC50 is the concentration that gives 50% inhibition.

Calls of active or inactive are those of the source. Rule as the data show it: active = IC50 below about 20 µM; inactive = the rest. A value given as a limit tells only on which side of the number the result lay.

With `O=S(=O)(c1ccc2c(c1)nc(COc1ccc(Cl)cc1)n2CC1CCCO1)N1CCOCC1` (configuration not stated), the IC50 was 3.85 µM. As to `CC1C(OC(=O)CCC(=O)NC(C)(C)CO)O[C@H]2OC3(C)CC[C@H]4[C@H](C)CCC1C24OO3` (some centres not stated), the IC50 is 0.368 µM. For `O=C(NC1CCCC1)c1cc(COc2ccc3ncccc3c2)on1`, the IC50 was 5.18 µM. The result for `CC1CCN(c2c(NCc3ccc(C(=O)N4c5ccccc5CC4C)cc3)c(=O)c2=O)CC1` (configuration not stated) reads 5.18 µM. Turning to `CCCCOC(=O)c1[nH]c2c(c1C)C(=O)CC(c1cc(OC)c(OC)c(OC)c1)C2` (configuration not stated), the IC50 is 2.22 µM. Turning to `C=C(C)CSc1nc2sc3c(c2c(=O)n1C1CCCCC1)CCN(C)C3`, the IC50 was 8.67 µM.

With `Cc1ccc(C(=O)N2CCN3C(=O)c4ccccc4C23c2ccc(Cl)cc2)cc1` (configuration not stated), the IC50 is 4.95 µM. With `C[N+]1=C(/C=C/Nc2ccccc2)C(C)(C)c2ccccc21`, the IC50 was 5.37 µM. For `O=C(/C=C/c1ccco1)Nc1ccc(-c2nc3ccccc3[nH]2)cc1`, the IC50 is 1.99 µM. In the case of `Cc1ccc(O)c(NC(=O)COc2cc(C)ccc2C)c1`, the IC50 was 3.34 µM. The result for `COCCNc1nc2c(c(=O)n(C)c(=O)n2C)n1Cc1cccc(C(F)(F)F)c1` reads 3.55 µM; that for `O=C(N[C@@H]1C/C=C\C[C@H](CC(=O)N(CCO)Cc2ccccc2)C(=O)NC[C@@H](c2ccccc2)OC1=O)OCC1c2ccccc2-c2ccccc21`, 6.27 µM; that for `CC(C)(C)c1ccc(C(=O)NC(=S)Nc2ccc(N3CCOCC3)cc2)cc1`, 9.13 µM. The same measure for `C[C@@H]1COC(=O)[C@@H](NC(=O)OCC2c3ccccc3-c3ccccc32)C/C=C\C[C@@H](CC(=O)N(CCO)Cc2ccccc2)C(=O)N1`: > 20 µM (inactive); for `CCOC(=O)CC1CCCCN1C(=O)c1cc(COc2cccc3cnccc23)on1` (configuration not stated): 4.47 µM; for `O=C(c1cc(COc2cccc3cnccc23)on1)N1CCCC(CCCO)C1` (configuration not stated): 1.53 µM.

`Cc1nn(Cc2noc(C(=O)NC3CCC(C)CC3)n2)c(C)c1Br` (configuration not stated): the IC50 is 8.59 µM. Regarding `CC(=O)c1cn(CCOc2ccccc2C)c2ccccc12`, the IC50 is 8.58 µM.

With `COc1ccc(CN(C)C(=O)c2cccc(NC(=O)CC3SC(N4CCCCC4)=NC3=O)c2)c(OC)c1` (configuration not stated), the IC50 is 13 µM. For `c1ccc2c(c1)OCC(CNc1ncnc3sccc13)O2` (configuration not stated), the IC50 was 0.887 µM.

`O=C(N[C@@H]1C/C=C\C[C@@H](CC(=O)N(CCO)Cc2ccccc2)C(=O)N[C@@H](c2ccccc2)COC1=O)OCC1c2ccccc2-c2ccccc21`: the IC50 is 11.9 µM. Regarding `Brc1ccc(-[n+]2c(-c3ccccc3)cc(-c3ccccc3)cc2-c2ccccc2)cc1`, the IC50 is 4.82 µM. The result for `O=C(N[C@H]1C/C=C\C[C@@H](CC(=O)N(CCO)Cc2ccccc2)C(=O)N[C@H](Cc2c[nH]c3ccccc23)COC1=O)OCC1c2ccccc2-c2ccccc21` reads 10.4 µM; that for `CC(=O)Nc1cccc(OCC(=O)/C=C2\N(C)c3ccccc3C2(C)C)c1`, 4.73 µM. For `COC(=O)c1cc(S(=O)(=O)N2CCC(c3cc(OC)ccc3OC)C2)c[nH]1` (configuration not stated), the IC50 is 9.96 µM. With `CC(C)CCOC(=O)C[N+](C)(C)CCOC1CC2CCC1(C)C2(C)C` (configuration not stated), the IC50 is 5.18 µM. For `COc1ccc(N2CCN(c3ncnc4c3[nH]c3ccccc34)CC2)cc1`, the IC50 was 2.52 µM.

As to `COc1ccc(NC(=S)N2CCC(Cc3ccccc3)CC2)cc1`, the IC50 is 16.6 µM. The result for `CCCn1c(SCC(=O)Nc2nc(-c3ccc(OC)cc3)cs2)nc2c1c(=O)n(C)c(=O)n2C` reads > 20 µM (inactive).

For the compound `NC(=O)c1c(-c2ccc(Cl)cc2Cl)csc1NC(=O)Cc1ccccc1`, the IC50 was 7.97 µM. The result for `COc1ccccc1CN(Cc1nc2ccccc2c(=O)[nH]1)S(=O)(=O)c1ccc(C)cc1` reads > 20 µM (inactive); that for `COc1ccc(Cn2c(-c3ccc(Cl)cc3)c[n+]3ccccc23)cc1`, 7.28 µM. Consider `O=C(Nc1ccc(C(F)(F)F)cc1)C1CCN(S(=O)(=O)c2ccc(N3CCCC3=O)cc2)CC1`, for which the IC50 was 3.22 µM. As to `CCC(CC)CN1C(N(C)C)=NC[C@@H]1CC(C)C`, the IC50 was 8.27 µM.

On to `CC(Sc1nc2ccccc2c(=O)n1C)C(=O)N(C)C1CCCCC1` (configuration not stated), for which the IC50 is 3.99 µM. The same measure for `CCn1c(=O)cc(SCC(=O)N2CCN(C3CCCCC3)CC2)c2ccccc21`: 11.9 µM; for `Cc1cccc(CCN2C(N(C)C)=NC[C@@H]2CC(C)C)c1`: 10.3 µM. Take `O=C(c1cnc(N2CCN(c3ccccn3)CC2)c2ccccc12)N1CCN(c2cccc(Cl)c2)CC1`: the IC50 is 11.4 µM. As for `CN(Cc1ccc(OC(F)F)cc1)C(=O)c1cccc(S(=O)(=O)N2CCN(Cc3ccccc3)CC2)c1`, the IC50 is 6.92 µM. As to `CCN1CCCC1CNc1ncnc2c1[nH]c1ccc(Cl)cc12` (configuration not stated), the IC50 is > 20 µM (inactive). The same measure for `CC(CC(=O)N1CCN(c2cccc(Cl)c2)CC1)S(=O)(=O)c1ccc2c(c1)NC(=O)CO2` (configuration not stated): 6.43 µM; for `CCOc1ccc(NC(=S)NNc2ccnc3cc(Cl)ccc23)cc1`: 5.36 µM. Consider `CCCCOc1ncnc2c1[nH]c1ccc(F)cc12`, for which the half-maximal inhibitory concentration (IC50) is 4.85 µM. Consider `COc1ccc(CC(=O)Nc2cccc(S(=O)(=O)N3CCCCCC3)c2)cc1OC`, for which the IC50 is 7.98 µM. The same measure for `C[N+]1(CC(=O)OC2CCCCCCCCCCC2)CCCC1`: 19.3 µM; for `Cc1cc(-c2ccccc2)cc(-c2ccccc2)[n+]1C`: 4.46 µM; for `COc1cccc2nc3c(C(=O)NCCN(C)C)cccc3cc12`: 3.02 µM.

For the compound `Cc1ccsc1CNc1ncnc2ccc(-c3c(C)noc3C)cc12`, the IC50 is 4.5 µM. As for `CC[N+](C)(CC)CCC(c1ccccc1)C1CCCCC1` (configuration not stated), the IC50 is 13.1 µM.

For the compound `O=C(NCCNc1ccnc2cc(Cl)ccc12)c1ccccc1F`, the IC50 is 8.19 µM. The result for `COc1nnc(-c2ccc(N3CCCCC3)c(N)c2)c2ccccc12` reads 9.11 µM; that for `CCN(CC(=O)Nc1c(F)cccc1F)C(=O)c1cc(S(=O)(=O)N(CC)CC)ccc1N1CCCCC1`, 12.2 µM. For the compound `O=C(Nc1cc2c3c(c1)C1CCCC1CN3CC1CCCC21)c1ccc([N+](=O)[O-])cc1` (configuration not stated), the IC50 is 5.09 µM. Regarding `CCc1c(C)nc2ncnn2c1N1CCN(S(=O)(=O)c2ccc(OC)cc2)CC1`, the IC50 is 6.58 µM. The same measure for `CCCCCCC[N+](CC)(CC)CCCCc1ccc(Cl)cc1`: 5.6 µM; for `CCn1c(/C=C/Nc2ccccc2)[n+](CC)c2cc(Cl)c(Cl)cc21`: 7.87 µM. The same measure for `O=C(Cn1cc(C(=O)c2ccco2)c2ccccc21)Nc1ccccc1F`: 4.27 µM; for `C(#Cc1ccccc1)C[N+]1(CC#Cc2ccccc2)CCCC1`: 5.3 µM; for `CCOc1ccc2[nH]c3c(N4CCN(C(=O)c5ccco5)CC4)ncnc3c2c1`: 7.07 µM. For the compound `Cc1sc2ncnc(NCC3COc4ccccc4O3)c2c1C` (configuration not stated), the IC50 is 5.17 µM. As to `CC(Sc1nc2ccccc2c(=O)n1C)C(=O)NC1CCCCC1C` (configuration not stated), the IC50 is 11.5 µM. For `Cc1cc(C)nc(/N=C(\N)Nc2ccccc2-c2ccccc2)n1`, the IC50 was 12.8 µM.

`COc1ccc(OC)c(Cc2cnc3nc(N)nc(N)c3c2C)c1`: the IC50 is 2.8 µM. With `CCOc1ccc(OCc2ccc(C(=O)NN=Cc3ccc[nH]3)cc2)cc1`, the IC50 was 2.44 µM.

Turning to `CC(=O)/C(=N\Nc1ccc(Cl)cc1Cl)Sc1cccc2cccnc12`, the IC50 is 1.12 µM. With `C/C(=N\NC(=O)C(=O)Nc1ccc(C)c(Cl)c1)c1ccncc1`, the IC50 was 1.51 µM. Turning to `COc1ccc(Nc2nc(N3CCOCC3)nc(N3CCOCC3)n2)c(OC)c1`, the IC50 is > 20 µM (inactive). On to `COc1ccc(-c2c[n+](CC(=O)c3ccccc3)c3n2CCCCC3)cc1`, for which the IC50 is 14.1 µM.

For `O=C(C[C@H]1C/C=C\C[C@H](NC(=O)OCC2c3ccccc3-c3ccccc32)C(=O)OC[C@@H]2CCCN2C1=O)N[C@H](CO)Cc1ccccc1`, the IC50 is > 20 µM (inactive). On to `COc1cccc(/C=C/c2ccncc2)c1OC`, for which the IC50 is 8.95 µM.

Take `Cc1ccc(NC(=O)COc2ccccc2C(N)=O)cc1S(=O)(=O)N1CCCCCC1`: the IC50 was 12.3 µM. Take `C=CCOc1nc2c(c(=O)n(C)c(=O)n2C)n1Cc1ccc(Cl)cc1`: the IC50 is 7.97 µM. On to `O=C(c1cc2sccc2n1Cc1ccc(F)cc1)N1CCN(c2nc3ccccc3s2)CC1`, for which the IC50 was 4.32 µM. On to `Cc1nnsc1C(=O)Nc1ccc(S(=O)(=O)N2CCC(C)CC2)cc1`, for which the IC50 was > 20 µM (inactive). Regarding `CNS(=O)(=O)c1cccc(C(=O)OCC(=O)c2cc(C)n(CC3CCCO3)c2C)c1` (configuration not stated), the IC50 is 0.735 µM.

As to `Cc1nc2sccn2c1-c1csc(NCc2ccccc2)n1`, the IC50 is 9.83 µM. The same measure for `COCCNC(=O)CSCc1nc(-c2ccc(SC)cc2)oc1C`: 8.46 µM. On to `O=C(Cc1ccc(Cl)cc1Cl)Nc1ccncc1`, for which the IC50 was 10.3 µM. For `CC1Sc2n(c3ccccc3[n+]2C)N=C1c1ccccc1` (configuration not stated), the IC50 was 4.71 µM. In the case of `CCOc1ccc(-c2nc(CSCC(=O)NC3CC3)c(C)o2)cc1`, the IC50 was 0.377 µM. On to `CC[N+](CC)(CC#Cc1ccccc1)CC#Cc1ccccc1`, for which the half-maximal inhibitory concentration (IC50) was 4.37 µM. For `Cc1ccc(S(=O)(=O)NCCC2=CCCCC2)cc1C(N)=O`, the IC50 is 8.71 µM. As for `COc1ccc(-c2noc(CCCCC(=O)N3CCN(c4cc(C)ccc4C)CC3)n2)cc1`, the IC50 was 4 µM. For `COc1ccc(NS(=O)(=O)c2ccc(N3CCOCC3)c(N)c2)cc1`, the IC50 was 5.16 µM. Consider `O=C(c1cc2nc(-c3ccc(F)cc3)cc(C(F)(F)F)n2n1)N1CCCCC1c1cccnc1` (configuration not stated), for which the IC50 is > 20 µM (inactive). With `CC(C)(C)OC(=O)NCCCCCc1cn(CC(=O)NCCCCCCCCCCC(=O)N2CCN(C(=O)OC(C)(C)C)CC2)nn1`, the IC50 was 2.93 µM. With `Cc1cc(/C=C2/SC(=S)N(c3ccc([N+](=O)[O-])cc3)C2=O)c(C)n1-c1cccnc1`, the IC50 is 0.663 µM.

Consider `CCCCCCCOc1ccc(OC(=O)c2ccncc2)cc1`, for which the IC50 is 0.954 µM. Take `Cc1nc2ccccc2c2oc(C(=O)N3CCN(C4CCCCC4)CC3)cc12`: the IC50 was 18.7 µM. On to `COCCn1c(CN2CCC(Cc3ccccc3)CC2)nc2c1c(=O)n(C)c(=O)n2C`, for which the IC50 was 4.08 µM. As for `O=C(Nc1nc(-c2cccs2)cs1)c1cccc(S(=O)(=O)N2CCCCCC2)c1`, the IC50 is 2.28 µM. In the case of `CCOC(=O)N1CCN(C(=O)c2cc(COc3ccc4ncccc4c3)on2)CC1`, the IC50 is 6.71 µM.
